# Laboratory results: patent publication US20050085524A1, “Pyrazolecarboxamides, intermediates therefor and pest control agent comprising the same as active ingredients” (NIHON NOHYAKU CO,. LTD., priority 2001, published 2005)
# Tests used:
# Format in all cases: in vivo
# [1] = tested on: female adult Tetranychus urticae Koch; assay: Miticidal effect on adult Tetranychus urticae Koch (Phaseolus leaf dip); conditions: leaf immersion, 25° C., five days after treatment
# Procedure: The stem part of a Phaseolus seedling with one fresh first leaf remaining thereon was inserted in a test tube (a volume of 50 ml) containing water, where 15 female adult Tetranychus urticae Koch per one leaf was then inoculated. […] Five days after the treatment, the number of the female adult Tetranychus urticae Koch was counted on the Phaseolus leave, to calculate the adult death ratio (%) based on the above results. The results are shown in Table-6 (Compound Nos. in the table below correspond to Compound Nos. in Table-1).
# Erypsiphe graminis = assay: Fungicidal and bactericidal effect on wheat powdery mildew (spray on potted wheat, then inoculation); conditions: 500 ppm, spray on wheat (Norin No.61), diseased leaf area after 7 to 10 days
# Procedure: Compound (III) disclosed in JP-A-64-25763, tebufenpyrade and various compounds in accordance with the present invention were individually prepared into preparations in the same manner as in Formulation 3 The resulting preparations were diluted to given concentrations and sprayed on the stems and leave of a wheat plant (species: Norin No.61) at the one-leaf to 2-leaf stage as grown in a pot of a 6-cm diameter, at a ratio of 10-ml volume per one pot. After drying the chemical preparations in air, the wheat plant was exposed to the spore collected from wheat leave afflicted with Erypsiphe graminis as the microorganism causing wheat powdery mildew, for inoculation. Then, the plant was left to stand alone in a green house for 7 to 10 days.
# Evaluation was carried out follows. The ratio of the diseased area of each leaf was examined to calculate the control ratio according to the following formula. The results are shown in Table 3 (in the table, Compound Nos. correspond to Compound Nos. in Table-1.) • Control ratio (%) • =[(mean ratio of diseased areas in non-treated lot) • −(mean ratio of diseased areas in treated lot)]× • ×100
# / (mean ratio of diseased areas in non-treated lot)
# Puccinia recondita = assay: Fungicidal and bactericidal effect on wheat rust (spray on potted wheat seedling, then inoculation); conditions: 500 ppm, spray on wheat seedling (Norin No.61), diseased leaf area after 7 days
# Procedure: Compound (III) disclosed in JP-A-64-25763 and various compounds in accordance with the present invention were individually prepared into preparations in the same manner as in Preparation 3. The resulting preparations were diluted to given concentrations and sprayed on the stems and leave of a wheat seedling (species: Norin No.61) at the one-leaf to 2-leaf stage as grown in a pot of a 6-cm diameter, at a ratio of 10-ml volume per one pot. After drying the chemical preparations in air, a spore suspension prepared by grinding the spore collected from wheat leave afflicted with Puccinia recondita as the microorganism causing wheat rust was sprayed on the wheat plant, for inoculation. Then, the plant was left to stand alone in a moist chamber at 22° C. for 15 hours. Subsequently, the plant was left to stand in a water pool in a green house for 7 days.
# Evaluation was carried out by examining the ratio of the diseased area of each leaf to calculate the control ratio by the same method as in Test Example 1.
# The results are shown in Table 4 (in the table, Compound Nos. correspond to Compound Nos, in Table-1.)
# [2] = tested on: 3rd instar Spodoptera litura larvae; assay: Effect on larvae of Spodoptera litura (cabbage leaf dip); conditions: foliar, 120 h, cabbage leaf immersed, 25° C., five days, agonizing insect counted as 0.5 death, read-out: Insecticide Activity (%)
# Procedure: Compound (III) disclosed in JP-A-64-25763 and various compounds in accordance with the present invention were individually prepared into insecticide preparations according to the formulation of Formulation Example 1. The resulting insecticides of the present invention (hydrates) were diluted with water, where chopped cabbage leave (a diameter of 6 cm) were then immersed for one minute. After immersion and subsequent drying in air, the cabbage leave were placed in a plastic cup (inner diameter of 7 cm), where five larvae each of 3rd instar Spodoptera litura were left (twice in duplicate per one concentration). The plastic cup was kept in a thermostat at 25° C. Five days after the larvae were left in the plastic cup, the death and agony of these larvae were examined, to calculate the insecticide activity (%) while an agonizing insect was counted as 0.5 insect death. The results are shown in Table 5 (in the table, Compound Nos. correspond to Compound Nos. in Table-1.)
Compound,Adult death ratio (%) ([1]; 500 ppm),Control Ratio (%) (Erypsiphe graminis),Control Ratio (%) (Puccinia recondita),other results
"CCc1cc(C(=O)NCc2ccc(-c3ccc(OC(F)F)cc3)cc2)n(C)n1 [Compound No. 30, N-[4-(4-Difluoromethoxyphenyl)benzyl]-1-methyl-3-ethylpyrazole-5-carboxamide]",100,100,100,
Cc1nn(C)c(C(=O)NC(C)c2ccc(-c3ccccc3)cc2)c1Br (stereo not shown) [Compound (III)],15,0,0,inhibition at 500 ppm [2]: 20%
CCc1cc(C(=O)NCc2ccc(-c3ccc(OC(C)C)cc3)cc2)n(C)n1 [compound 25],,100,100,
CCc1nn(C)c(C(=O)NCc2ccc(C(C)(C)C)cc2)c1Cl [tebufenpyrade],,77,,Adult death ratio (%) ([1]; 0.8 ppm): 0%; Adult death ratio (%) ([1]; 3.1 ppm): 80%; Adult death ratio (%) ([1]; 12.5 ppm): 100%
CCCCCc1ccc(-c2ccc(CNC(=O)c3cc(CC)nn3C)cc2)cc1 [Compound No. 11],100,,,
Cn1nc2c(c1C(=O)NCc1ccc(-c3ccc(OC(F)(F)F)cc3)cc1)CCCC2 [compound 106],100,,,
CCCCCCCc1ccc(-c2ccc(CNC(=O)c3cc(CC)nn3C)cc2)cc1 [compound 13],,100,,
